Data set [1] has as its system HCT116 p53^+/+. Description: Cytotoxicity MTS assay, 72 h. In kind it is cell-based, human. To be noted: for IC50: Homo sapiens, HCT-116, HCT116 p53^+/+, 72 h, MTS. The source says:
(§1) The human colon carcinoma cell line HCT116 wild type (p53^+/+), human breast carcinoma cell line MCF-7 and glioblastoma cell line Hs683 were obtained from ATCC. The glioma cell line U-251 was purchased from Sigma Aldrich and the normal human fibroblast cell lines NHDF from PromoCell. The human colon cancer cell line HCT116 with a p53 deletion (p53^-/-) was kindly provided by Prof. M. Rusin from the Maria Sklodowska-Curie Memorial Cancer Centre and Institute of Oncology in Gliwice, Poland. Cells were grown as monolayer cultures in Dulbecco’s modified Eagle’s medium with an antibiotic gentamicin (200 μL/100 mL medium) in 75 cm^2 flasks (Nunc). DMEM for HCT116, MCF-7, U-251, Hs683 were supplemented with 12% heat-inactivated fetal bovine serum (Sigma) and for NHDF with 15% non-inactivated fetal bovine serum (Sigma). All the cell lines were cultured under standard conditions at 37°C in a humidified atmosphere at 5% CO2.
(§2) The cells were seeded in 96-well plates (Nunc) at a density of 5,000 cells/well (HCT116, MCF-7, U-251, Hs683) and 4,000 cells/well (NHDF) and incubated at 37°C for 24 h. The assay was performed following a 72 h incubation with varying concentrations of the compounds that were tested. Then, 20 μL of The CellTiter 96®AQueous One Solution-MTS (Promega) solution was added to each well (with 100 μL DMEM without phenol red) and incubated for 1 h at 37°C. The optical densities of the samples were analyzed at 490 nm using a multi-plate reader (Synergy 4, Bio Tek). Results were expressed as a percentage of the control and calculated as the inhibitory concentration (IC50) values using GraphPad Prism 5. The IC50 parameter was defined as the compound concentration that was necessary to reduce the proliferation of cells to 50% of the untreated control. Each individual compound was tested in triplicate in a single experiment with each experiment being repeated four to five times.

In data set [2] the test system is HCT116 p53^-/-. Description: Cytotoxicity MTS assay, 72 h. The data set is classed as cell-based, human. The note with it: for IC50: Homo sapiens, HCT-116, HCT116 p53^-/-, 72 h, MTS.
From the text: as §1, §2

Data set [3] relates to Hs683. Description: Cytotoxicity MTS assay, 72 h. The data set is classed as cell-based, human. To be noted: for IC50: Homo sapiens, Hs 683, Hs683, 72 h, MTS.
From the text: as §1, §2
In general terms: Formazan colour is commonly taken as a measure of viable cells.

The subject of data set [4] is MCF-7. Description: Cytotoxicity MTS assay, 72 h. The note with it: for IC50: Homo sapiens, MCF7, MCF-7, 72 h, MTS. In kind it is cell-based, human.
From the text: as §1, §2

The test system of data set [5] is U-251. Description: Cytotoxicity MTS assay, 72 h. The data set is classed as cell-based, human. The note with it: for IC50: Homo sapiens, U-251, 72 h, MTS.
From the text: as §1, §2

The subject of data set [6] is U-251 cells. Description: Western blot of cell cycle and cell death proteins. In kind it is cell-based, human. The note with it: 24 h. The protocol: (§3) The HCT116 (p53^+/+), U-251 and MCF-7 cells were seeded in 3 cm Petri dishes (Nunc) at a density of 0.5·10^6 cells/well and incubated overnight. […] Cells were harvested by trypsinization, washed with cold PBS and cell pellets were obtained by centrifugation at 2,000 rpm. Total cell lysates were obtained by dissolving the cell pellets in 150 μL of a RIPA buffer (Thermo Scientific) containing a Halt Protease Inhibitor Cocktail (Thermo Scientific) or Halt Phosphatase Inhibitor Cocktail (Thermo Scientific) along with 0.5 M EDTA and lysed for 20 min on ice on a rocking plate. The lysates were then sonicated, centrifuged at 10,000 rpm for 10 min at 4°C and the supernatants were collected for further analysis. The protein concentration was determined using a Micro BCA™ Protein Assay Kit (Thermo Scientific) according to the manufacturer’s instructions. Equal amounts of proteins (15 μg) were electrophoresed on SDS-Page gels and transferred onto a nitrocellulose membranes. The membranes were blocked in 5% non-fat milk prepared in PBS containing 0.1% Tween-20 (TPBS) for 1 h. After blocking, the membranes were incubated with specific primary antibodies: PARP, p53, p21^Waf1/Cip1, cdc2, cyclin E, cytochrome c, caspase-3,8,9 and GAPPH overnight at 4°C, then washed and incubated with horseradish peroxidase (HRP)-conjugated secondary antibodies for 1 h at room temperature. All the antibodies were purchased from Cell Signaling and were diluted 1:1000 in 5% milk in TPBS. Finally, the membranes were washed and incubated with a SuperSignal™ West Pico Chemiluminescent Substrate (Thermo Scientific). The chemiluminescence signals were captured using a ChemiDoc™ XRS+ System (BioRad). The experiments were performed at least three times.
On the technique in general: Immunoblotting shows a protein as a band on a membrane.

Data set [7] deals with MCF-7 cells. Description: Western blot of cell cycle and cell death proteins. The data set is classed as cell-based, human. The note with it: 24 h, L^9 at four-fold IC50. The method, then: as §3
The subject of data set [8] is HCT116 p53^+/+ cells. Description: Western blot of cell cycle and cell death proteins. In kind it is cell-based, human. The note with it: 24 h, L^9 at four-fold IC50. The protocol:
as §3

Data set [9] has as its system NHDF. Description: Cytotoxicity MTS assay, 72 h. The data set is classed as cell-based. The note with it: Homo sapiens, NHDF normal fibroblasts.
From the text: as §1, §2

Data set [10] can be described thus: Protonation constants by pH-dependent UV-visible spectrophotometric titration. In kind it is physicochemical. To be noted: MeOH/H2O 80/20 by weight, I = 0.1 M KCl, T = 25.0°C. The method, then:
Spectrophotometric titrations were performed in order to probe the acid-based equilibria that were associated with each ligand and to determine the pH range over which the chelator was in its charge neutral form. This property is important in understanding the passage of a molecule through the cell membranes, as charged chelators have poor access. These studies were performed in an 80% (w/w) MeOH/H2O solvent mixture due to the low solubility of these compounds in pure water. The fully protonated forms of the ligands have four L^1-L^7 or five L^8-L^12 dissociable protons, respectively. […] An additional proton in L^8-L^12 derives from the additional pyridine, pyrimidine or pyrazine ring, respectively; however, not all of them could be determined under these experimental conditions. The protonation constants that were obtained are given in Table 1 and the species distribution diagram of the protonated species of the selected ligand is presented in Fig 3.
To determine the acid-base properties of the studied ligands, UV-visible spectrophotometric experiments as a function of p[H] were carried out in the pH range 2–11.
UV-Visible titrations were also carried out. The absorption spectra (200–800 nm) were recorded using a Jasco V630 spectrophotometer. The initial pH of 3.2 mL ligand samples was adjusted to be acidic or basic and the titration of the solution was then carried out by adding known volumes of NaOH or HCl, respectively. The spectrophotometric data were fitted using the HypSpec program. Distribution diagrams of the species were calculated using Hyperquad Simulation and Speciation (HySS) software.

The conditions of data set [11]: literature value; cited from earlier work.
The subject of data set [12] is cancer cell lines. Description: Cytotoxicity MTS assay, whole panel of cancer cell lines. The data set is classed as cell-based. The note with it: Homo sapiens, Hs 683; all the cancer lines, Hs683 an exception.
From the text: as §1
The cells were seeded in 96-well plates (Nunc) at a density of 5,000 cells/well (HCT116, MCF-7, U-251, Hs683) and 4,000 cells/well (NHDF) and incubated at 37°C for 24 h. […] The optical densities of the samples were analyzed at 490 nm using a multi-plate reader (Synergy 4, Bio Tek). Results were expressed as a percentage of the control and calculated as the inhibitory concentration (IC50) values using GraphPad Prism 5. […]

Consider 2 compounds from PMC5898707, “Piperazinyl fragment improves anticancer activity of Triapine” (PLoS ONE, 2018).

Each structure is given as a SMILES string. Like-named read-outs stand apart in the source and are kept apart here.

Usually IC50 stands for the midpoint of a concentration-inhibition curve. One may read the melting point as the temperature, or range, at which the solid turns liquid.

As for `NC(=S)NN=Cc1ncccc1N` [Triapine, 3-aminopyridine-2-carboxaldehyde thiosemicarbazone], in data set [1], the “Therapeutic index (TI) NHDF vs. HCT116 p53^+/+” value was >22 and the IC50 turned out to be 1.12 ± 0.277 µM. Moreover, in [2], the “Therapeutic index (TI) NHDF vs. HCT116 p53^-/-” value was >19 and the IC50 came out at 1.34 ± 0.338 µM. Also, in data set [3], the “Therapeutic index (TI) NHDF vs. Hs683” value is recorded as >14 and the IC50 worked out at 1.76 ± 0.292 µM. In addition, in [4], the “Therapeutic index (TI) NHDF vs. MCF-7” value is on record as >11 and the IC50 was found to be 2.33 ± 0.431 µM. For the same compound, in data set [5], the “Therapeutic index (TI) NHDF vs. U-251” value was >17 and the IC50 amounted to 1.48 ± 0.558 µM. Also, the cytochrome c entry in [6] (U-251) was “release of cytochrome c”. The “expression of cyclin E” value in data set [6] (U-251, L^9 at four-fold IC50) is on record as “overexpression”. Further, the PARP cleavage result in data set [6] (glioma cell (U-251)) is on record as “PARP cleavage”. In data set [7], the cytochrome c result is recorded as “release of cytochrome c”, the “expression of cdc2” value is “much stronger” and the “expression of cyclin E” value is reported as “overexpression”. For the same compound, in data set [8], the cytochrome c entry is listed as “release of cytochrome c” and the “expression of cyclin E” value was “overexpression”. In addition, the IC50 in data set [9] was > 25 µM. Further, in data set [10], the logK1 came to 10.64 and the logK2 is given as 3.48. In [10] (error 1σ), the logβ1H is 10.64 (1) and the logβ2H is 14.12 (1). In data set [11], the logK1 is reported as 10.86, the logK2 is 3.79, the logβ1H is 10.86 (1)^[[45]^] and the logβ2H was 14.65 (1)^[[45]^].
In turn, `Nc1cccnc1C=NNC(=S)N1CCN(c2ccc(Cl)cc2)CC1` [L^3, N’-[(3-aminopyridin-2-yl)methylidene]-4-(4-chlorophenyl)piperazine-1-carbothiohydrazide] yielded a melting point of 206 to 207 °C. Also, the half-inhibitory concentration (IC50) in data set [1] is 0.12 ± 0.005 µM. Besides, the IC50 in [2] was determined as 0.167 ± 0.018 µM. Moreover, the IC50 in data set [3] was determined as 1.48 ± 0.335 µM. The IC50 in [4] turned out to be 0.204 ± 0.049 µM. Also, the half-maximal inhibitory concentration (IC50) in data set [5] was 0.128 ± 0.012 µM. The IC50 in data set [12] lay in the range of 0.12 to 0.2 µM. Also, the half-maximal inhibitory concentration (IC50) in [9] was > 25 µM.
